Test results reported in patent publication US20230398211A1, “Liposomes Containing TLR4 Agonist, Preparation and Uses Thereof” (priority 2020, published 2023).

Assays:
[1] = Alcohol solubility of E6020 and MPL in ethanol by nephelometry
Experimental: The appearance and increase of opalescence, indicative of insolubility was followed by nephelometry.
RNU (Relative nephelometry Unit) of each solution was recorded and plotted on a graph.

sheep red blood cells = test: Hemolysis assay; format: cell-based; details: 30 minutes at 37° C.
Experimental: Before use, red blood cells (Sheep red blood cells 10%, Rockland, ref R405-0050, lot BP30202 (stored+4° C.) were washed in cold PBS. Five mL of sheep red blood cells were transferred into a 15 mL Falcon tube and 7 mL of cold PBS were added. Cells were centrifuged for 10 min 700 g at 4° C. Supernatant was carefully removed and cell pellet was suspended in 12 mL of cold PBS. Then, cell suspension was centrifuged for 10 min, 700 g at 4° C. The cell suspension and centrifugation steps were repeated twice. Finally, cells were suspended in PBS in a final volume of 5 mL ready-to-use.
In a round bottom P96 plate, 100 μL per well of PBS were added. Then, 100 μL per well of saponin QS21 or QS7 solutions were added in serial 2-fold dilutions (1.6 μM to 200 μM-) in a citrate buffer (Citrate 10 mM, NaCl 140 mM, pH 6.3). […]
Twenty-five μL/well of 10% red blood cell solution were added, and the plates were incubated for 30 minutes at 37° C. and then were centrifuged for 5 min 700 g at room temperature. Eighty μL per well of surnageant were collected and transfered to a flat bottom plate for spectrophotometer reading (OD 540 nm). The percentage of cell hemolysis is calculated for each saponin concentration tested in μM according to the formula: 100×[(sample absorbance−negative control absorbance)[…](positive control absorbance−negative control absorbance)]. […]

| Substance | appearance of ethanol solution (opalescence) ([1]; 0.5, 1.0, 2.0 and 10 mg/ml in absolute ethanol, mixed 3h at room temperature) | solubility in ethanol ([1]; absolute ethanol, room temperature (about 25° C.), nephelometry) | EC50 (sheep red blood cells; read-out: effective concentration inducing hemolysis of 50% red blood cells (EC50)) [µM] | erythrocyte hemolysis (sheep red blood cells; from 25 μM to 100 μM) [%] |
| --- | --- | --- | --- | --- |
| 3-O-desacyl-4′-monophosphoryl lipid A [MPL] | opalescent even at the lowest concentration tested | very low solubility |  |  |
| QS21 |  |  | 4.2 | 100 |
